Assay results as given in patent US20250154212A1, “METHOD OF DISRUPTING MEMORY AND LIPOPEPTIDE FOR USE IN SUCH METHOD” (The Research Foundation for The State University of New York, priority 2023, published 2025).
Entries after “also recorded” stand apart in the source; their conditions may differ. Where no end group is shown, it is not given here. The star is where a group is joined. Myristoyl = CCCCCCCCCCCCCC(=O)*

System: late-LTP in hippocampal slices of PKMζ-null mice
Assay: Late-LTP recording (fEPSP) in hippocampal slices of PKMζ-null mice
Assay type: cell-based, mouse
Details: for effect on late-LTP, tetanized pathway: 10 μM applied 3 h post-tetanization; for effect on baseline synaptic transmission, untetanized pathway: 10 μM in bath
Procedure: Acute mouse hippocampal slices (450 μm) were prepared as previously described (17, 73). Hippocampi from 2-6-month-old male C57/B6 or PKM ζ-null mice as previously described (17) were dissected, bathed in ice-cold dissection buffer, and sliced with a McIlwain tissue slicer in a cold room (4° C.). The dissection buffer contained (in mM): 125 NaCl, 2.5 KCl, 1.25 NaH2PO4, 26 NaHCO3, 11 glucose, 10 MgCl2, and 0.5 CaCl2), and was bubbled with 95% O2/5% CO2 to maintain pH at 7.4. After dissection the slices were immediately transferred into an Oslo-type interface recording chamber (31.5±1° C.) (73). The recording superfusate consisted of (in mM): 118 NaCl, 3.5 KCl, 2.5 CaCl2), 1.3 MgSO4, 1.25 NaH2PO4, 24 NaHCO3, and 15 glucose, bubbled with 95% O2/5% CO2, with a flow rate of 0.5 ml/min. In a subset of experiments a custom-made recirculation system employing piezoelectric pumps was used for recycling the superfusate (Bartels Mikrotechnik GmbH, Dortmund, Germany) (73).
Field EPSPs were recorded with a glass extracellular recording electrode (2-5 M (2) placed in the CA1 st. radiatum, and concentric bipolar stimulating electrodes (CBBRE75 and 30200; FHC, Bowdoin, ME) were placed on either side within CA3 or CA1. Test stimulation rate was once every 30 sec, alternating every 15 sec between stimulating electrodes. Based upon a pre-established exclusion criterion, a slice was not used if fEPSP spike threshold was <2 mV on initial input-output analysis. Pathway independence was confirmed by the absence of paired-pulse facilitation between the two pathways. A single stimulating electrode was used for PLA/immunocytochemistry with a test stimulation rate of once every 30 sec. The high-frequency stimulation, optimized to produce a relatively rapid onset of protein synthesis-dependent late-LTP (74), consisted of two 100 Hz-1 s tetanic trains, at 25% of spike threshold, spaced 20 sec apart. The maximum slope of the rise of the fEPSP was analyzed on a PC using the WinLTP data acquisition program (75).
Replicates are biological because there is only one measurement for each sample. Drug/vehicle comparisons were performed blindly. Sample sizes vary for the different experimental approaches (biochemistry, slice physiology, and behavior) and were established by power analyses based on effect size estimates from published work or preliminary experiments. The observed effect sizes for binary comparisons are reported as Cohen's d and as η^2p for ANOVA effects. Multi-factor comparisons were performed using ANOVA with repeated measures, as appropriate. Two-population Student's/tests were performed to compare protein immunofluorescence intensity between control and potentiated hippocampal slices. For LTP experiments, the responses were first normalized to the mean of the 30 min period prior to tetanization (or equivalent in control pathways), and then the means over 5 min periods were used for statistical comparisons (e.g., pre-tetanization, beginning and end of drug application). Paired Student's t tests were used to compare the change in the potentiated response at time points at the beginning and end of drug application. The degrees of freedom for the critical t values of the/tests and the F values of the ANOVAs are reported as subscripts. Post-hoc multiple comparisons were performed by Newman-Keuls tests as appropriate. Statistical significance was accepted at P<0.05 or appropriate Bonferroni correction for multiple comparisons. […]

Compound	effect on late-LTP, tetanized pathway	effect on late-LTP, tetanized pathway (listed as z-stat)	effect on baseline synaptic transmission, untetanized pathway
O=S(=O)(O)c1cc(O)c2c(S(=O)(=O)O)cc(S(=O)(=O)O)cc2c1 [ζ-stat, 1-naphthol-3,6,8-trisulphonic acid]	has no effect on late-LTP maintenance	has no effect on late-LTP	has no effect on late-LTP or baseline synaptic transmission
myr-N-FVRNSLERRSVRMKRPS-C (Myristoyl-FVRNSLERRSVRMKRPS) [K-ZAP]	has no effect on late-LTP maintenance; also recorded: has no effect on PKMz-null-LTP		no effect
